# Reference: PMC9519552, “Activation of the human insulin receptor by non-insulin-related peptides” (Nature Communications, 2022)
# Read-outs that look alike come from different tables or passages of the source. Positions of bridges follow the written chain, without caps; N, C: chain ends. Residues, ends and D or L forms follow the SMILES beside them.
# Key:
# human IR-A (holoIR-A) = biological target: T1, human IR-A (holoIR-A) (Homo sapiens, UniProt P06213); test: holoIR-A competitive radioligand binding assay (scintillation proximity assay); details: for Ki: IM172N22(-) mutant peptide set; for reduction in ki for hIR-A on substitution: relative to control peptide IM172N22 devoid of N-terminal phenylacetylation
# T1 construct: expressed in transfected cells; host or cells: HEK293 (ATCC #CRL-1573), stably transfected; membrane preparation
# Method: Cellular membranes were prepared from human embryonic kidney (HEK293; ATCC #CRL-1573) cells stably transfected with cDNA corresponding to human IR-A (holoIR-A) plus a C-terminal C9 tag ([…]) inserted within a pcDNA3.1 plasmid (Invitrogen), with positive clones selected with 800 μg mL^−1 neomycin and confirmed by Western Blot. Frozen cell pellets were thawed in ice-cold homogenization/resuspension buffer (50 mM Tris-HCl, pH 7.5) containing one cOmplete® protease inhibitor tablet with EDTA (Roche Diagnostics) per 50 mL buffer. Cells were homogenized with an overhead motor-driven Teflon-glass homogenizer using 15–20 strokes, followed by centrifugation at 1100 × g for 10 min at 4 °C. The supernatant was saved on ice, pellets were homogenized as before, and centrifuged at 1100 × g for 10 min at 4 °C. Both supernatants were combined and subsequently centrifuged at 35,000 × g for 60 min at 4 °C. The pellet was resuspended in buffer (4 to 5 mL g^−1 of starting cell paste) containing protease inhibitors and quick frozen in liquid nitrogen prior to storage at −80 °C. Protein concentration was determined using a BCA kit (Thermo Scientific) with bovine serum albumin (BSA) as standard.
# The assays were performed with a scintillation proximity assay (SPA) method using polyvinyltoluene (PVT) wheat germ agglutinin-coupled SPA beads (Perkin Elmer). Assay buffer containing 50 mM Tris-HCl (pH 7.5), 150 mM NaCl, 0.1% w/v fatty-acid free BSA was used for all compound testing and reagent preparation. Ten-point concentration response curves with three-fold serial dilutions of test samples or controls were prepared in the assay buffer. […] Plates were sealed and shaken for 1 min on a plate shaker. Following a 10-h incubation and bead settling period at room temperature, radioactivity was determined using a MicroBeta Trilux scintillation counter (Perkin Elmer) and expressed as counts per minute (CPM). […] Samples were tested in three independent assay runs on three different days.
# All test sample concentration responses were normalized to the control response and calculated as a percent of the maximal response after correcting for nonspecific binding as shown below: %Specific Inhibition=100%−[(CPM−MIN)/(MAX−MIN)×100%]
# Percent specific binding (y-axis) was plotted vs log concentration of compound (x-axis) using Prism Version 9.3.1 (GraphPad Software). Individual measurements are provided as Source Data.
# [1] = biological target: T2, human holoIR-A over-expressed in HEK293 cells (Homo sapiens, UniProt P06213); test: Inhibition of hIR phosphorylation by peptides, co-incubated with BHI at its EC50 (ELISA); assay type: cell-based; details: for hIRA Phosph IC50 Run 1 / hIRA Phosph IC50 Run 2 / hIRA Phosph IC50 Run 3: inhibition of insulin-stimulated phosphorylation; for hIRA Phosph IC50 Run 1: BHI at its EC50, run 1; for hIRA Phosph IC50 Run 2: BHI at its EC50, run 2; for hIRA Phosph IC50 Run 3: BHI at its EC50, run 3; for IC50: read-out: hIRA Phosph IC50 Mean
# T2 construct: expressed in transfected cells; host or cells: HEK293, stably transfected
# Method: Phosphorylation was quantified using an ELISA technique. Ninety-six well, flat-bottom microplates (Greiner Bio-One) were pre-coated with 2 µg mL^−1 anti-C9 monoclonal antibody (Rho 1D4; University of British Columbia)[27] in 20 mM sodium carbonate, pH 9.6, at 4 °C for overnight prior to the assay. On the assay day, plates were washed 3× with 0.1% Tween in 50 mM Tris Buffer Saline, pH 7.5 (TBST), and then blocked for greater than 1 h at room temperature (RT) with 1% BSA (Sigma) in TBST.
# Stably transfected HEK293 cells over-expressing human holoIR-A containing a C-terminal C9 epitope tag ([…]), were plated at 6 × 10^4 cells per well serum-starved using 0.1% BSA in DMEM (Gibco) for overnight at standard tissue culture condition. […] After a 15-min incubation in lysis buffer at 4 °C, the lysate was transferred to anti-C9 antibody coated capture plate (Rho 1D4; University of British Columbia)[27]. […] After a 1 h incubation at room temperature, the secondary antibody was removed by washing 3× with TBST. Signal detection occurred with the addition of TMB, an HRP substrate (Pierce). After 5–10 min, the reaction was stopped by adding an equal volume of 2 M H2SO4, and the absorbance readings at 450 nm (A450) were recorded using a Envision plate reader (PerkinElmer). Samples were tested in three independent assay runs on three different days.
# Percent specific response (y-axis) was plotted versus the log concentration of compound (x-axis) using Prism Version 9.3.1 (GraphPad Software). Individual measurements are provided as Source Data.
# [2] = mean of 3 runs, read-out: hIRA Binding Ki Mean
# [3] = run 1, read-out: hIRA Binding Ki Run 1
# [4] = run 2, read-out: hIRA Binding Ki Run 2
# [5] = run 3, read-out: hIRA Binding Ki Run 3
# T2 sequence (P06213 28-1370 isoform P06213-2 limits assumed): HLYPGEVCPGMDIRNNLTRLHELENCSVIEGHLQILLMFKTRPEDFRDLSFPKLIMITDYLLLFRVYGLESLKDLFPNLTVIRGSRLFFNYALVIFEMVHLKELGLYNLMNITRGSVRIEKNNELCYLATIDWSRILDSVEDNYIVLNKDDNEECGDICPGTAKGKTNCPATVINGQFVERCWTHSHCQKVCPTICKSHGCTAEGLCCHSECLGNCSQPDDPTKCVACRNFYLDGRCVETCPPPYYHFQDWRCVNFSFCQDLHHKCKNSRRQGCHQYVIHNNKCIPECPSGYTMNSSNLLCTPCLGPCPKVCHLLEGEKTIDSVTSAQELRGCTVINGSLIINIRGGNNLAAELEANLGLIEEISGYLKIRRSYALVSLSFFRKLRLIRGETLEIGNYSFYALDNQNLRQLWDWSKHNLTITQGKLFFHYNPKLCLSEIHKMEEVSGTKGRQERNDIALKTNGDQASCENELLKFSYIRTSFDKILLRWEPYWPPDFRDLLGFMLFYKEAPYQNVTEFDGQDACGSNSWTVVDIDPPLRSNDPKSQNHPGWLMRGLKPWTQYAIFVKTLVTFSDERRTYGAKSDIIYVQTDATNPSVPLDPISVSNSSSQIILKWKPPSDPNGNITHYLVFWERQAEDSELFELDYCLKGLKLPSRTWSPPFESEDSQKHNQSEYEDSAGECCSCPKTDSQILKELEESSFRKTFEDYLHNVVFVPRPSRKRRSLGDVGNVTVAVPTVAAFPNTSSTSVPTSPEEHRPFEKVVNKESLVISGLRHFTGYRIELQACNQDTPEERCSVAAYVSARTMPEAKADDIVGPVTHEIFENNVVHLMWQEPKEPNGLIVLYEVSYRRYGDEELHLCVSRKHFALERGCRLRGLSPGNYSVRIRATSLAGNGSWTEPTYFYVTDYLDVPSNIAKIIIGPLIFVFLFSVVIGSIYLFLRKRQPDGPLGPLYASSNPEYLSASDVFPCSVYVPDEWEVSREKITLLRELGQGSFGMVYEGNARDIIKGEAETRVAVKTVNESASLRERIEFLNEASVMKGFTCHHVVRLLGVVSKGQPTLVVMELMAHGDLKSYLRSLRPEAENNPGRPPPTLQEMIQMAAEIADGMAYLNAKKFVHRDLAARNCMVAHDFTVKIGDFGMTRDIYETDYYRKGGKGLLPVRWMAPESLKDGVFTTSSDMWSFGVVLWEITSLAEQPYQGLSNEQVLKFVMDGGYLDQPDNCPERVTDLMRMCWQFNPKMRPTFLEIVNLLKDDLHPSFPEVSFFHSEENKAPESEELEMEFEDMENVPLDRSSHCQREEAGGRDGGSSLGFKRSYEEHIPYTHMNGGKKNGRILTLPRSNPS
# T2 sequence (P06213 763-1382 partner limits assumed): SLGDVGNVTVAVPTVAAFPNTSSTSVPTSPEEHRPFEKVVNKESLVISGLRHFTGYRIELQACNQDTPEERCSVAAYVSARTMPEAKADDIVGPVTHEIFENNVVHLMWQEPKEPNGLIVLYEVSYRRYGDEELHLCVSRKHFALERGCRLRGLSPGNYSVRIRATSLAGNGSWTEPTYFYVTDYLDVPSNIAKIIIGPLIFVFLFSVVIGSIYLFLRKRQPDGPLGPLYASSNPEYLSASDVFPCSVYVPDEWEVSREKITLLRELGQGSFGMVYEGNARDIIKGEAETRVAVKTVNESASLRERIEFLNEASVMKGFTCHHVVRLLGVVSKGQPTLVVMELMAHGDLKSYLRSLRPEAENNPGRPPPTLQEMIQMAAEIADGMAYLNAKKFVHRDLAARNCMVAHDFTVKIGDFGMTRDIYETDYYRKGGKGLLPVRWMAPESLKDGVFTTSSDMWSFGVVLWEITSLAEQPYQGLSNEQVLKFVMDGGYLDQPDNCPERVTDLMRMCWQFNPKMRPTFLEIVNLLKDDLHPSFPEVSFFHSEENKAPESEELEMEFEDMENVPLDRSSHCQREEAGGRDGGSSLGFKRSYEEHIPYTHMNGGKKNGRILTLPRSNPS
# T1 sequence (P06213 28-1370 isoform P06213-2 limits assumed): as the sequence (P06213 28-1370 isoform P06213-2 limits assumed) above
# T1 sequence (P06213 763-1382 partner limits assumed): as the sequence (P06213 763-1382 partner limits assumed) above
Ki (human IR-A (holoIR-A); [2]) [µM],Ki (human IR-A (holoIR-A); [3]) [µM],Ki (human IR-A (holoIR-A); [4]) [µM],Ki (human IR-A (holoIR-A); [5]) [µM],hIRA Phosph IC50 Run 1 [1] [µM],hIRA Phosph IC50 Run 2 [1] [µM],hIRA Phosph IC50 Run 3 [1] [µM],IC50 [1] [µM],reduction in ki for hIR-A on substitution (human IR-A (holoIR-A)),SMILES
0.228,0.211,0.237,0.235,0.583,0.517,0.744,0.615,–,CC[C@H](C)[C@H](NC(=O)[C@H](CCC(N)=O)NC(=O)[C@H](C)NC(=O)[C@H](Cc1c[nH]c2ccccc12)NC(=O)[C@H](CCC(=O)O)NC(=O)[C@H](CCC(=O)O)NC(=O)[C@H](CCC(=O)O)NC(=O)[C@H](CC(C)C)NC(=O)[C@H](CO)NC(C)=O)C(=O)N[C@@H](CCC(=O)O)C(=O)N[C@H]1CSSC[C@@H](C(=O)N2CCC[C@H]2C(=O)N2CCC[C@H]2C(=O)N[C@@H](CO)C(=O)N[C@@H](CCC(=O)O)C(=O)N[C@@H](CO)C(N)=O)NC(=O)[C@H](C)NC(=O)CNC(=O)[C@H](Cc2ccc(O)cc2)NC(=O)[C@H](C(C)C)NC(=O)[C@H](CCC(=O)O)NC1=O [Peptide R16A] (Ac-SLEEEWAQIECEVYGACPPSES-NH2; disulfide 11-17)
0.0091,0.00871,0.00806,0.0105,0.119,0.127,0.121,0.122,lower than 5 fold,CC[C@H](C)[C@H](NC(=O)[C@H](CCC(N)=O)NC(=O)[C@H](C)NC(=O)[C@H](Cc1c[nH]c2ccccc12)NC(=O)[C@H](CCC(=O)O)NC(=O)[C@H](CCC(=O)O)NC(=O)[C@H](CCC(=O)O)NC(=O)[C@H](CC(C)C)NC(=O)[C@H](C)NC(C)=O)C(=O)N[C@@H](CCC(=O)O)C(=O)N[C@H]1CSSC[C@@H](C(=O)N2CCC[C@H]2C(=O)N2CCC[C@H]2C(=O)N[C@@H](CO)C(=O)N[C@@H](CCC(=O)O)C(=O)N[C@@H](CO)C(N)=O)NC(=O)[C@H](CCCNC(=N)N)NC(=O)CNC(=O)[C@H](Cc2ccc(O)cc2)NC(=O)[C@H](C(C)C)NC(=O)[C@H](CCC(=O)O)NC1=O [Peptide S1A] (Ac-ALEEEWAQIECEVYGRCPPSES-NH2; disulfide 11-17)
0.167,0.145,0.184,0.172,1.117,1.161,1.465,1.25,–,CC[C@H](C)[C@H](NC(=O)[C@H](CCC(N)=O)NC(=O)[C@H](C)NC(=O)[C@H](Cc1c[nH]c2ccccc12)NC(=O)[C@H](CCC(=O)O)NC(=O)[C@H](CCC(=O)O)NC(=O)[C@H](CCC(=O)O)NC(=O)[C@H](CC(C)C)NC(=O)[C@H](CO)NC(C)=O)C(=O)N[C@@H](CCC(=O)O)C(=O)N[C@H]1CSSC[C@@H](C(=O)N2CCC[C@H]2C(=O)N2CCC[C@H]2C(=O)N[C@@H](CO)C(=O)N[C@@H](CCC(=O)O)C(=O)N[C@@H](CO)C(N)=O)NC(=O)[C@H](CCC(=O)O)NC(=O)CNC(=O)[C@H](Cc2ccc(O)cc2)NC(=O)[C@H](C(C)C)NC(=O)[C@H](CCC(=O)O)NC1=O [Peptide R16E] (Ac-SLEEEWAQIECEVYGECPPSES-NH2; disulfide 11-17)

# Continued, molecule first:
SMILES,Ki (human IR-A (holoIR-A); [2]) [µM],Ki (human IR-A (holoIR-A); [3]) [µM],Ki (human IR-A (holoIR-A); [4]) [µM],Ki (human IR-A (holoIR-A); [5]) [µM],hIRA Phosph IC50 Run 1 [1] [µM],hIRA Phosph IC50 Run 2 [1] [µM],hIRA Phosph IC50 Run 3 [1] [µM],IC50 [1] [µM],reduction in ki for hIR-A on substitution (human IR-A (holoIR-A))
CC[C@H](C)[C@H](NC(=O)[C@H](CCC(N)=O)NC(=O)[C@H](C)NC(=O)[C@H](Cc1c[nH]c2ccccc12)NC(=O)[C@H](CCC(=O)O)NC(=O)[C@H](CCC(=O)O)NC(=O)[C@H](CCC(=O)O)NC(=O)[C@H](CC(C)C)NC(=O)[C@H](CO)NC(C)=O)C(=O)N[C@@H](CCC(=O)O)C(=O)N[C@H]1CSSC[C@@H](C(=O)N2CCC[C@H]2C(=O)N2CCC[C@H]2C(=O)N[C@@H](CO)C(=O)N[C@@H](CCC(=O)O)C(=O)N[C@@H](CO)C(N)=O)NC(=O)[C@H](CCCNC(=N)N)NC(=O)CNC(=O)[C@H](Cc2ccc(O)cc2)NC(=O)[C@H](C(C)C)NC(=O)[C@H](CCCNC(=N)N)NC1=O [Peptide E12R] (Ac-SLEEEWAQIECRVYGRCPPSES-NH2; disulfide 11-17),0.132,0.117,0.126,0.152,2.869,2.922,2.67,2.82,–
CC[C@H](C)[C@H](NC(=O)[C@H](CCC(N)=O)NC(=O)[C@H](C)NC(=O)[C@H](Cc1c[nH]c2ccccc12)NC(=O)[C@H](CCC(=O)O)NC(=O)[C@H](CCC(=O)O)NC(=O)[C@H](CCC(=O)O)NC(=O)[C@H](CC(C)C)NC(=O)[C@H](CO)NC(C)=O)C(=O)N[C@@H](CCC(=O)O)C(=O)N[C@H]1CSSC[C@@H](C(=O)N2CCC[C@H]2C(=O)N[C@@H](C)C(=O)N[C@@H](CO)C(=O)N[C@@H](CCC(=O)O)C(=O)N[C@@H](CO)C(N)=O)NC(=O)[C@H](CCCNC(=N)N)NC(=O)CNC(=O)[C@H](Cc2ccc(O)cc2)NC(=O)[C@H](C(C)C)NC(=O)[C@H](CCC(=O)O)NC1=O [Peptide P19A] (Ac-SLEEEWAQIECEVYGRCPASES-NH2; disulfide 11-17),0.014,0.013,0.0129,0.0162,0.172,0.109,0.148,0.143,lower than 5 fold
CC[C@H](C)[C@H](NC(=O)[C@H](CCC(N)=O)NC(=O)[C@H](C)NC(=O)[C@H](Cc1c[nH]c2ccccc12)NC(=O)[C@H](CCC(=O)O)NC(=O)[C@H](CCC(=O)O)NC(=O)[C@H](C)NC(=O)[C@H](CC(C)C)NC(=O)[C@H](CO)NC(C)=O)C(=O)N[C@@H](CCC(=O)O)C(=O)N[C@H]1CSSC[C@@H](C(=O)N2CCC[C@H]2C(=O)N2CCC[C@H]2C(=O)N[C@@H](CO)C(=O)N[C@@H](CCC(=O)O)C(=O)N[C@@H](CO)C(N)=O)NC(=O)[C@H](CCCNC(=N)N)NC(=O)CNC(=O)[C@H](Cc2ccc(O)cc2)NC(=O)[C@H](C(C)C)NC(=O)[C@H](CCC(=O)O)NC1=O [Peptide E3A] (Ac-SLAEEWAQIECEVYGRCPPSES-NH2; disulfide 11-17),0.342,0.335,0.353,0.337,1.212,1.189,1.302,1.23,–
CC[C@H](C)[C@H](NC(=O)[C@H](CCC(N)=O)NC(=O)[C@H](C)NC(=O)[C@H](Cc1c[nH]c2ccccc12)NC(=O)[C@H](CCC(=O)O)NC(=O)[C@H](CCC(=O)O)NC(=O)[C@H](CCC(=O)O)NC(=O)[C@H](CC(C)C)NC(=O)[C@H](CO)NC(C)=O)C(=O)N[C@@H](CCC(=O)O)C(=O)N[C@H]1CSSC[C@@H](C(=O)N2CCC[C@H]2C(=O)N2CCC[C@H]2C(=O)N[C@@H](CO)C(=O)N[C@@H](CCC(=O)O)C(=O)N[C@@H](CO)C(N)=O)NC(=O)[C@H](CCCNC(=N)N)NC(=O)CNC(=O)[C@H](Cc2ccc(O)cc2)NC(=O)[C@H](C(C)C)NC(=O)[C@H](C)NC1=O [Peptide E12A] (Ac-SLEEEWAQIECAVYGRCPPSES-NH2; disulfide 11-17),0.0503,0.0449,0.0522,0.0539,0.343,0.247,0.295,0.295,–
